{"source": "patent US12077527B2", "about": "“Compositions and methods for inhibiting ACSS2” (THE TRUSTEES OF THE UNIVERSITY OF PENNSYLVANIA, priority 2017, dated 2024)", "key": {"ACSS2": {"target": "T1, ACSS2 (Mus musculus, UniProt Q9QXG4)", "T1 construct": "from tissue; host or cells: brain (hippocampus) of living mice", "T1 sequence (Q9QXG4 whole entry)": "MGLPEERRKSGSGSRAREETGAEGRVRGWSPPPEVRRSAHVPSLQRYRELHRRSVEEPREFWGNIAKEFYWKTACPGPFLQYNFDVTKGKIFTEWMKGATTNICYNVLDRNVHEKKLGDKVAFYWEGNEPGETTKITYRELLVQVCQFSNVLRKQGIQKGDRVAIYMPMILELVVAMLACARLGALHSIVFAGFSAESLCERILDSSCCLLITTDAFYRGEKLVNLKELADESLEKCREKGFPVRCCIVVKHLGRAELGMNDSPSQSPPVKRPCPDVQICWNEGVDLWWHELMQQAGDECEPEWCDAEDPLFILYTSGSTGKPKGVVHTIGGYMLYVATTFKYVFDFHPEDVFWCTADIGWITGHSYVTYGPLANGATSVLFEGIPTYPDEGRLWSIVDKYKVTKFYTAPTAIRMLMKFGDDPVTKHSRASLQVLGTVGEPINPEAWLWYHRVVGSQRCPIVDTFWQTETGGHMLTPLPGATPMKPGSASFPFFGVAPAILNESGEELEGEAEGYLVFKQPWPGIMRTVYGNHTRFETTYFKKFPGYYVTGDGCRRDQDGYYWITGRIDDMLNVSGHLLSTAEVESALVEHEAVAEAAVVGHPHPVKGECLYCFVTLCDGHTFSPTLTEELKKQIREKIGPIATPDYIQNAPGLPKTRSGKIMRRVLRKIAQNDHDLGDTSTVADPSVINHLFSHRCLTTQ", "assay": "Incorporation of alcohol-derived heavy acetyl groups into brain histone acetylation (Example 6)", "type": "in vivo", "conditions": "mice treated with ACSS2 inhibitor", "experimental": "To investigate the direct role of ACSS2 in alcohol-dependent acetylation in the brain, mice are treated with an ACSS2 inhibitor, ADG-204, ADG-205, ADG-206, or ADG-207. […] In contrast, in control mice, vHPC incorporation of the heavy label is not affected. Thus, acetate derived from hepatic alcohol metabolism is transported to the brain and readily incorporated into histone acetylation."}, "[1]": {"system": "differentiated CAD neurons", "assay": "Nuclear acetyl-CoA quantification (PicoProbe assay) in differentiated CAD neurons", "type": "cell-based, mouse", "conditions": "versus control, n=3", "experimental": "(§1) CAD cells (Cath.-a-differentiated) were grown in Dulbecco's modified Eagle's medium (DMEM):Ham's F12 (1:1), supplemented with 2 mM glutamine, 1% penicillin/streptomycin, and 10% fetal bovine serum (FBS). To induce neuronal differentiation, sub-confluent CAD cell cultures (50-60%) were transferred to serum-free medium (DMEM:Ham's F12 (1:1) supplemented with 2 mM glutamine) and maintained in […] culture dishes for 5 days. […] For knockdown experiments, CAD cells were infected with lentiviral hairpin constructs (TRC collection) designed against ACL (#TRCN0000055217) or ACSS2 (#TRCN0000076124, #TRCN0000076125) in medium containing […] polybrene and 10% FBS for 24 hours. Cells then underwent selection in culture medium supplemented with 0.5 mg/mL puromycin for 5 days to obtain a stably infected population. Cell treatment with ACSS2i (1-(2,3-di(thiophen-2-yl)quinoxalin-6-yl)-3-(2-methoxyethyl)urea (DMSO)) was carried out for 24 hours at a final concentration of 20 μM (treatment with DMSO alone served as control).\nTo extract and quantify acetyl-CoA from differentiated CAD neurons, 4×10^6 cells were washed and incubated in lysis buffer for 30 min (10 mM Tris pH 8, 1 mM KCl, 1.5 mM MgCl2, 1 mM DTT). […] The PicoProbe assay was performed in 96-well clear-bottom plates, and the resulting fluorescence was quantified using the Synergy HTX Multi-Mode Microplate Reader (BioTek Instruments)."}, "[2]": {"system": "primary hippocampal neurons", "assay": "RNA-seq of acetate-treated primary hippocampal neurons with or without ACSS2i", "type": "cell-based, mouse", "experimental": "All RNA-seq data were prepared for analysis as follows: NextSeq sequencing data was demultiplexed using native apps on BaseSpace. Demultiplexed FASTQs were aligned by RNA-STAR 2.5.2 to assembly mml0 (GRCm38). Aligned reads were mapped to genomic features using HTSeq 0.6.1. Quantification, library size adjustment, and differential gene expression analysis was done using DESeq2 and Wald's test (pairwise contrasts between acetate and DMSO-treatment in the inhibitor-treated or untreated cells, followed by a set overlap of differentially expressed genes). Gene list overlaps were tested for significance using the hypergeometric test.\nNext, the functional relevance of alcohol-derived acetate for ACSS2-dependent histone acetylation in regulating hippocampal gene expression was examined (FIG. 23E, right). […] However, in line with the ChIP-seq data, this response was markedly blunted in ACSS2 KD mice. […] Because alcohol and acetate have pleiotropic effects on brain circuitry and metabolism, an in vitro assay was then developed to more closely model the direct effects of exogenous acetate on gene expression. […]"}, "[3]": {"system": "primary hippocampal neurons", "assay": "Western blots of lysates from primary hippocampal neurons treated with ACSS2i", "type": "cell-based, mouse", "conditions": "day 7 neurons, ACSS2i 24 hours, western blot", "experimental": "Cells were lysed in buffer containing 50 mM Tris pH 8.0, 0.5 mM EDTA, 150 mM NaCl, 1% NP40, 1% SDS, supplemented with protease inhibitor cocktail (Life Technologies, number 78446). For subcellular fractionation experiments, the cells were processed using the subcellular fractionation kit for cultured cells (Thermo Scientific, number 78840) according to the manufacturer's instructions. Protein concentration was determined by BCA protein assay (Life Technologies, number 23227), and equal amounts of protein were used in co-immunoprecipitation experiments or directly loaded onto polyacrylamide gels. The endogenous co-immunoprecipitation experiments were performed using antibody-conjugated protein A Dynabeads (Life Technologies) in buffer containing: 20 mM Tris, pH 8.0, 137 mM NaCl, 1 mM MgCl2, 1 mM CaCl2, 1% NP-40, 10% glycerol, with protease and phosphatase inhibitors, and 12.5 U/mL benzonase (Novagen, 70746). Proteins or co-immunoprecipitation eluates were loaded and separated on 4-12% Bis-Tris polyacrylamide gels (NuPAGE). After transfer to nitrocellulose membrane, 3% BSA in TBS supplemented with 0.1% Tween 20 (TBST) was used to block the membrane at room temperature for 1 hour. Primary antibodies were diluted in TBST, and incubated at 4° C. overnight. Primary antibodies are listed below. The membrane was washed three times with TBST, each for 10 min, followed by incubation with HRP-conjugated secondary antibodies at room temperature for 1 hour, in TBST. The membrane was washed again three times, and imaged with a Fujifilm LAS-4000 imager. Original gel blots are provided as FIGS. 14-16. […]"}, "[4]": {"system": "differentiated CAD neurons", "assay": "RNA-seq of differentiated CAD neurons treated with ACSS2i", "type": "cell-based, mouse", "experimental": "as §1\nTo generate libraries for RNA-seq, poly(A)^+ RNA was extracted using the Dynabeads mRNA Direct kit (Ambion) according to the manufacturer's instructions. […] The quantity and quality of the libraries were assessed by BioAnalyzer (Agilent) and qPCR (Kapa Biosystems). The multiplexed libraries were pooled and sequenced on a single lane on the Illumina NextSeq 500 platform (50 bp, single-end reads). […] The aligned reads were mapped to genomic features using cufflinks-2.2.1, (-G parameter to quantify only known features), and iGenomes mml0 UCSC genomic transcript loci. The rRNA, […], and tRNA of the mouse genome were downloaded from the goldenPath UCSC FTP and were masked from the transcript quantification. After quantification, all data processing was done using python pandas library v.0.14.0. […] The statistical significance of the trend and reproducibility were assessed by taking the top 20% of genes by loss of expression in the knockdown and comparing the expression of these genes in inhibitor-treated cells to a random sample of genes outside this set (Mann-Whitney test)."}}, "data": [{"smiles": "COCCNC(=O)Nc1ccc2nc(-c3cccs3)c(-c3cccs3)nc2c1", "note": "[ADG-205, 1-(2,3-di(thiophen-2-yl)quinoxalin-6-yl)-3-(2-methoxyethyl)urea]", "values": [{"measurement": "incorporation of alcohol-derived heavy acetyl groups into histone acetylation", "setting": "ACSS2", "result": "prevents the incorporation of alcohol-derived heavy acetyl groups into histone acetylation"}]}, {"smiles": "CNC(=O)Nc1ccc2nc(-c3cccs3)c(-c3cccs3)nc2c1", "note": "[ADG-206, 1-(2,3-di(thiophen-2-yl)quinoxalin-6-yl)-3-methylurea]", "values": [{"measurement": "incorporation of alcohol-derived heavy acetyl groups into histone acetylation", "setting": "ACSS2", "result": "prevents the incorporation of alcohol-derived heavy acetyl groups into histone acetylation"}]}, {"smiles": "CCCCCNC(=O)Nc1ccc2nc(-c3cccs3)c(-c3cccs3)nc2c1", "note": "[ADG-204, 1-(2,3-di(thiophen-2-yl)quinoxalin-6-yl)-3-penlylurea]", "values": [{"measurement": "incorporation of alcohol-derived heavy acetyl groups into histone acetylation", "setting": "ACSS2", "result": "prevents the incorporation of alcohol-derived heavy acetyl groups into histone acetylation"}]}, {"smiles": "COCCNC(=O)Nc1ccc2nc(-c3cccs3)c(-c3cccs3)nc2c1", "note": "[ACSS2i, 1-(2,3-di(thiophen-2-yl)quinoxalin-6-yl)-3-(2-methoxyethyl)urea]", "values": [{"measurement": "Nuclear acetyl-CoA levels, mean Δ", "setting": "[1]", "result": "−0.25±0.05"}, {"measurement": "regulation of acetate-induced genes by ACSS2i", "setting": "[2]; in the absence of acetate", "result": "not regulated"}, {"measurement": "acetate-induced genes that failed to become upregulated in the presence of ACSS2i", "setting": "[2]; of 3613 acetate-induced genes, 10 mM acetate 24 hours", "result": 2107, "unit": "genes"}, {"measurement": "ACSS2 levels", "setting": "[3]", "result": "without lowering ACSS2 levels"}, {"measurement": "histone acetylation", "setting": "[3]", "result": "reduced"}, {"measurement": "neuronal marker expression", "setting": "[3]", "result": "reduced"}, {"measurement": "expression of differentiation-induced genes (RNA-seq)", "setting": "[4]; 24-hour ACSS2i 20 μM vs DMSO", "result": "a reduction in differentiation-induced genes"}, {"measurement": "expression of ND genes (genes linked to neuronal differentiation, 1,315 genes)", "setting": "[4]; ACSS2i-treated vs DMSO-treated CAD neurons", "result": "markedly reduced"}, {"measurement": "genes that showed reduced expression upon ACSS2i treatment", "setting": "[4]; RNA-seq, 24-hour ACSS2i 20 μM vs DMSO", "result": 299, "unit": "genes"}]}, {"smiles": "O=C(Nc1ccc2nc(-c3cccs3)c(-c3cccs3)nc2c1)NC12CC3CC(CC(C3)C1)C2", "note": "[ADG-207, 1-((1S,3s)-adamantan-1-yl)-3-(2,3-di(thiophen-2-yl)quinoxalin-6-yl)urea]", "values": [{"measurement": "incorporation of alcohol-derived heavy acetyl groups into histone acetylation", "setting": "ACSS2", "result": "prevents the incorporation of alcohol-derived heavy acetyl groups into histone acetylation"}]}]}
